ChEMBL document CHEMBL4627246, “Pyroglutamide-Based P2X7 Receptor Antagonists Targeting Inflammatory Bowel Disease” (J Med Chem, 2020)

What was measured:
Format in all cases: cell-based
[1] = test system: IGROV-1; test: Cytotoxicity against human IGROV1 cells assessed as effect on cell growth at 10 uM incubated for 48 hrs by sulforhodamine B assay; conditions: igrov-1, 48 h
[2] = test system: NCI-H460; test: Cytotoxicity against human NCI-H460 cells assessed as effect on cell growth at 10 uM incubated for 48 hrs by sulforhodamine B assay; conditions: nci-h460, 48 h
[3] = test system: COLO 205; test: Cytotoxicity against human COLO205 cells assessed as effect on cell growth at 10 uM incubated for 48 hrs by sulforhodamine B assay; conditions: colo 205, 48 h
[4] = test system: SK-MEL-5; test: Cytotoxicity against human SK-MEL-5 cells assessed as effect on cell growth at 10 uM incubated for 48 hrs by sulforhodamine B assay; conditions: sk-mel-5, 48 h
[5] = test system: NCI-H226; test: Cytotoxicity against human NCI-H226 cells assessed as effect on cell growth at 10 uM incubated for 48 hrs by sulforhodamine B assay; conditions: nci-h226, 48 h
[6] = test system: HOP-92; test: Cytotoxicity against human HOP92 cells assessed as effect on cell growth at 10 uM incubated for 48 hrs by sulforhodamine B assay; conditions: hop-92, 48 h
[7] = test system: 786-0; test: Cytotoxicity against human 786-0 cells assessed as effect on cell growth at 10 uM incubated for 48 hrs by sulforhodamine B assay; conditions: 786-0, 48 h
[8] = test system: SN12C; test: Cytotoxicity against human SN12C cells assessed as effect on cell growth at 10 uM incubated for 48 hrs by sulforhodamine B assay
[9] = test system: U-251; test: Cytotoxicity against human U251 cells assessed as effect on cell growth at 10 uM incubated for 48 hrs by sulforhodamine B assay; conditions: u-251, 48 h
[10] = test system: SNB-75; test: Cytotoxicity against human SNB75 cells assessed as effect on cell growth at 10 uM incubated for 48 hrs by sulforhodamine B assay; conditions: snb-75, 48 h
[11] = test system: SF-295; test: Cytotoxicity against human SF295 cells assessed as effect on cell growth at 10 uM incubated for 48 hrs by sulforhodamine B assay; conditions: sf-295, 48 h
[12] = test system: SF-268; test: Cytotoxicity against human SF268 cells assessed as effect on cell growth at 10 uM incubated for 48 hrs by sulforhodamine B assay; conditions: sf-268, 48 h
[13] = test system: Malme-3M; test: Cytotoxicity against human MALME-3M cells assessed as effect on cell growth at 10 uM incubated for 48 hrs by sulforhodamine B assay
[14] = test system: BT-549; test: Cytotoxicity against human BT549 cells assessed as effect on cell growth at 10 uM incubated for 48 hrs by sulforhodamine B assay; conditions: bt-549, 48 h
[15] = test system: NCI/ADR-RES; test: Cytotoxicity against human NCI/ADR-RES cells assessed as effect on cell growth at 10 uM incubated for 48 hrs by sulforhodamine B assay
[16] = test system: NCI-H522; test: Cytotoxicity against human NCI-H522 cells assessed as effect on cell growth at 10 uM incubated for 48 hrs by sulforhodamine B assay; conditions: nci-h522, 48 h
[17] = test system: Hs-578T; test: Cytotoxicity against human Hs 578T cells assessed as effect on cell growth at 10 uM incubated for 48 hrs by sulforhodamine B assay
[18] = test system: OVCAR-4; test: Cytotoxicity against human OVCAR4 cells assessed as effect on cell growth at 10 uM incubated for 48 hrs by sulforhodamine B assay; conditions: ovcar-4, 48 h
[19] = test system: HCT-15; test: Cytotoxicity against human HCT15 cells assessed as effect on cell growth at 10 uM incubated for 48 hrs by sulforhodamine B assay; conditions: hct-15, 48 h
[20] = test system: HOP-62; test: Cytotoxicity against human HOP62 cells assessed as effect on cell growth at 10 uM incubated for 48 hrs by sulforhodamine B assay; conditions: hop-62, 48 h

Measured: Activity

O=C(NCc1ccc(Cl)cc1Cl)[C@@H]1CCC(=O)N1c1cscn1
Non-Toxic: all assays above

O=C(NCc1ccc(Cl)cc1Cl)[C@@H]1CCC(=O)N1Cc1ccccc1
Non-Toxic: all assays above

CN(C)C(=O)[C@@H]1CCC(=O)N1
Non-Toxic: all assays above

COc1ccc(N2C(=O)CC[C@H]2C(=O)NCc2ccc(Cl)cc2Cl)cc1
Non-Toxic: all assays above

O=C(NCc1ccccc1Cl)[C@@H]1CCC(=O)N1c1ccccc1
Non-Toxic: all assays above

O=C1CCCC(C(=O)NCc2ccc(Cl)cc2Cl)N1 (stereo not given)
Non-Toxic: all assays above

O=C(NCc1ccc(Cl)cc1Cl)[C@@H]1CCC(=O)N1c1ccc(Cl)cc1
Non-Toxic: all assays above

COc1ccc(CN2C(=O)CC[C@H]2C(=O)NCCc2ccccc2)cc1
Non-Toxic: all assays above

O=C(NCc1ccc(Cl)cc1Cl)[C@@H]1CCC(=O)N1c1ccsc1
Non-Toxic: all assays above

O=C(Nc1ccc(Cl)cc1Cl)[C@@H]1CCC(=O)N1Cc1ccccc1Cl
Non-Toxic: all assays above

O=C1N[C@H](C(=O)NCc2ccc(Cl)cc2Cl)C/C1=C\N1CCOCC1
Non-Toxic: all assays above

C[n+]1ccccc1C(=O)NCc1ccc(Cl)cc1Cl.[I-]
Non-Toxic: all assays above
